Results as given in the NIST ThermoML archive (doi:10.1016/j.tca.2006.04.001).
Numbers after ± are expanded uncertainties.

Conditions: Liquid, Pycnometric method

CCCCCCCCCCCCCCCCCC [octadecane]
Conditions | specific volume [m3/kg]
299.25 K | 0.00129 ± 1.9e-05
301.35 K | 0.001292 ± 1.9e-05
303.35 K | 0.001295 ± 1.9e-05
305.45 K | 0.001295 ± 1.9e-05
307.55 K | 0.001298 ± 1.9e-05
309.55 K | 0.001301 ± 1.9e-05
311.65 K | 0.001301 ± 1.9e-05
313.65 K | 0.001304 ± 2e-05
315.75 K | 0.001308 ± 2e-05
317.75 K | 0.001311 ± 2e-05
318.65 K | 0.001318 ± 2e-05
319.85 K | 0.001317 ± 2e-05
320.65 K | 0.001319 ± 2e-05
323.55 K | 0.001323 ± 2e-05
325.45 K | 0.001324 ± 2e-05
328.35 K | 0.00133 ± 2e-05
330.35 K | 0.001331 ± 2e-05
333.25 K | 0.001335 ± 2e-05
335.15 K | 0.001337 ± 2e-05
338.05 K | 0.001341 ± 2e-05
341.05 K | 0.001345 ± 2e-05
342.95 K | 0.001346 ± 2e-05
345.85 K | 0.00135 ± 2e-05
347.85 K | 0.001354 ± 2e-05
350.75 K | 0.001357 ± 2e-05
352.65 K | 0.00136 ± 2e-05
355.55 K | 0.001363 ± 2.1e-05
357.55 K | 0.001364 ± 2.1e-05
360.45 K | 0.001368 ± 2.1e-05
362.35 K | 0.001372 ± 2.1e-05
365.25 K | 0.001375 ± 2.1e-05
367.25 K | 0.001377 ± 2.1e-05
370.15 K | 0.001382 ± 2.1e-05
372.05 K | 0.001385 ± 2.1e-05
374.95 K | 0.001388 ± 2.1e-05
376.95 K | 0.001391 ± 2.1e-05
379.85 K | 0.001395 ± 2.1e-05
381.75 K | 0.001398 ± 2.1e-05
384.75 K | 0.001402 ± 2.1e-05
386.65 K | 0.001404 ± 2.1e-05
389.55 K | 0.001409 ± 2.1e-05
391.55 K | 0.001411 ± 2.1e-05
394.45 K | 0.001416 ± 2.1e-05
396.35 K | 0.001419 ± 2.1e-05
399.25 K | 0.001423 ± 2.1e-05
401.25 K | 0.001425 ± 2.1e-05
404.15 K | 0.001429 ± 2.2e-05
406.05 K | 0.001433 ± 2.2e-05
408.95 K | 0.001437 ± 2.2e-05
410.95 K | 0.00144 ± 2.2e-05
413.85 K | 0.001444 ± 2.2e-05
415.75 K | 0.001448 ± 2.2e-05
418.65 K | 0.001451 ± 2.2e-05
420.65 K | 0.001455 ± 2.2e-05
423.55 K | 0.001459 ± 2.2e-05
425.45 K | 0.001456 ± 2.2e-05
428.45 K | 0.001464 ± 2.2e-05
430.35 K | 0.001464 ± 2.2e-05
433.25 K | 0.001474 ± 2.2e-05
435.25 K | 0.001471 ± 2.2e-05
438.15 K | 0.001482 ± 2.2e-05
440.05 K | 0.001478 ± 2.2e-05
442.95 K | 0.001488 ± 2.2e-05
444.95 K | 0.001485 ± 2.2e-05
447.85 K | 0.001496 ± 2.3e-05
449.75 K | 0.001498 ± 2.3e-05
452.65 K | 0.001502 ± 2.3e-05
454.65 K | 0.001506 ± 2.3e-05
457.55 K | 0.001512 ± 2.3e-05
459.45 K | 0.001513 ± 2.3e-05
462.45 K | 0.00152 ± 2.3e-05
464.35 K | 0.001522 ± 2.3e-05
467.25 K | 0.00153 ± 2.3e-05
469.15 K | 0.001528 ± 2.3e-05
472.15 K | 0.001538 ± 2.3e-05
474.05 K | 0.001535 ± 2.3e-05
476.95 K | 0.001546 ± 2.3e-05
478.95 K | 0.001545 ± 2.3e-05
481.85 K | 0.001557 ± 2.3e-05
483.75 K | 0.001554 ± 2.3e-05
486.65 K | 0.001564 ± 2.3e-05
488.65 K | 0.001562 ± 2.3e-05
491.55 K | 0.001573 ± 2.4e-05
493.45 K | 0.001571 ± 2.4e-05
496.35 K | 0.001577 ± 2.4e-05
498.35 K | 0.001582 ± 2.4e-05
500.25 K | 0.001587 ± 2.4e-05
503.15 K | 0.001592 ± 2.4e-05
505.15 K | 0.001595 ± 2.4e-05
508.05 K | 0.001602 ± 2.4e-05
510.95 K | 0.001609 ± 2.4e-05
512.95 K | 0.00161 ± 2.4e-05
515.85 K | 0.001619 ± 2.4e-05
518.75 K | 0.001623 ± 2.4e-05
520.65 K | 0.001628 ± 2.4e-05
523.55 K | 0.001634 ± 2.5e-05
525.55 K | 0.001639 ± 2.5e-05
527.45 K | 0.001644 ± 2.5e-05
530.35 K | 0.001649 ± 2.5e-05
533.25 K | 0.001657 ± 2.5e-05
535.25 K | 0.001659 ± 2.5e-05
538.15 K | 0.001666 ± 2.5e-05
541.05 K | 0.001675 ± 2.5e-05
543.05 K | 0.001677 ± 2.5e-05
545.95 K | 0.001685 ± 2.5e-05
548.85 K | 0.001691 ± 2.5e-05
550.75 K | 0.001697 ± 2.6e-05
553.65 K | 0.001704 ± 2.6e-05
555.65 K | 0.001706 ± 2.6e-05
558.55 K | 0.001714 ± 2.6e-05
560.45 K | 0.00172 ± 2.6e-05
563.45 K | 0.00173 ± 2.6e-05
566.35 K | 0.001737 ± 2.6e-05
568.25 K | 0.001741 ± 2.6e-05

CCCCCCCCCCCCCCCC [hexadecane]
Conditions | specific volume [m3/kg]
298 K | 0.001313 ± 2e-05
323 K | 0.001344 ± 2e-05
348 K | 0.001376 ± 2.1e-05
373 K | 0.001411 ± 2.1e-05
398 K | 0.001447 ± 2.2e-05
423 K | 0.001486 ± 2.2e-05
448 K | 0.001529 ± 2.3e-05
473 K | 0.001575 ± 2.4e-05
498 K | 0.001626 ± 2.4e-05
523 K | 0.001682 ± 2.5e-05
548 K | 0.001744 ± 2.6e-05
573 K | 0.001811 ± 2.7e-05
